Test results taken from patent publication US20150125403A1, “PERSONAL CARE AND COSMETIC COMPOSITIONS COMPRISING RENEWABLY-BASED, BIODEGRADABLE 1,3-PROPANEDIOL” (DuPont Tate & Lyle Bio Products Company, LLC, priority 2006, published 2015).

What was measured:
[1] = viscosity of the composition; type: physicochemical; settings: cosmetic emulsion of Example 1 made with the named glycol instead of Bio-PDO
Experimental: Brookfield Model RV−Spindle 5 at 20 rpm for 1 minute (factor×200)
Brookfield Model RV−Spindle T at 5 rpm for 1 minute (factor×10,000)

human skin [2] = assay: second human skin patch test; type: in vivo; settings: 25, 50, and 75% (pH 7)
Description: (§1) Based on these studies PDO is not expected to be a skin irritant or sensitizer in humans.

human skin [3] = assay: human skin patch test with approximately 100 subjects; type: in vivo; settings: 5, 25, and 50% PDO
Description: as §1

SMILES | viscosity of the cosmetic emulsion containing the glycol [1] [cps] | patch test irritation and cumulative irritation of human skin (human skin [2]) | skin reactions indicative of irritation or sensitization (human skin [3])
CC(CO)CO [2-methyl-1,3-propanediol] | 9600 |  | 
CC(O)CCO (centres unmarked) [1,3-butylene glycol] | 6000 |  | 
CC(O)CO (centres unmarked) [propylene glycol, 1,2-propanediol] | 12600 | patch test irritants and cumulative irritants for human skin | 
OCCCO [PDO, 1,3-propanediol] |  |  | did not cause any skin reactions indicative of irritation or sensitization
